These are literature values, as cited in patent US7163702B1 (priority 2004, dated 2007).

The conditions of this data set: human, in vivo.

`N=C(N)c1ccc(OCCCCCOc2ccc(C(=N)N)cc2)cc1` [pentamidine]: the “incidence of adverse reactions” value is “around 50%”.
